# Earlier results as cited in US20220125818A1, “COMPOSITIONS AND METHODS FOR TREATMENT OF A CORONAVIRUS DISEASE (COVID-19) INFECTION” (priority 2020, published 2022).
# Biological target: T1, COX-1 (Homo sapiens, UniProt P23219)
# T1 construct: endogenous in cells; host or cells: platelets (in vivo)
# Details: average platelet lifespan
# T1 sequence (P23219 24-599): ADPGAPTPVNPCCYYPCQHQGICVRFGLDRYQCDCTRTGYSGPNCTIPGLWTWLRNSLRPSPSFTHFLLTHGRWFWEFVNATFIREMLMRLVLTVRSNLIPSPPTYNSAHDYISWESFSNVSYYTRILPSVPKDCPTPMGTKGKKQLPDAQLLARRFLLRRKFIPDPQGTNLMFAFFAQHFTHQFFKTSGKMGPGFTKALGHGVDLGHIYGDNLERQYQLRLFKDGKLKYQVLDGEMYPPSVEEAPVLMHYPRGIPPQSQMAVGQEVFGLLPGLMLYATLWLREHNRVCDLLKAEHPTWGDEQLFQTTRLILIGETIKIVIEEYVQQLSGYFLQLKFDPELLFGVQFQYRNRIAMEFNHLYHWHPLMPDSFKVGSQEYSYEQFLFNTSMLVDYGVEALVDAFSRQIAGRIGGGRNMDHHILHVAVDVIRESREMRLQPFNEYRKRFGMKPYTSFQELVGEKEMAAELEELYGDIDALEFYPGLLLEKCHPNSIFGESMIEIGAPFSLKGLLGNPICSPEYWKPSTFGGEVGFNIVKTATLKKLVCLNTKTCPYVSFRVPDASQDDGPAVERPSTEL
smiles,measurement,value
"CC(=O)Oc1ccccc1C(=O)O [Aspirin®, Acetylsalicylic acid]",duration of inhibition of platelet aggregation,7 to 10 days
